# How the values were obtained:
# human cardiomyocytes [1] = assay: Microelectrode array (MEA) recording of electrical activity of patterned human cardiomyocytes; assay type: cell-based
# Procedure: The cardiac myocytes were cultured on patterned metal MEAs (planar 10 μm electrodes, 200 μm separation, Multichannel-systems). A 60 channel amplifier (MEA1040, Multichannel-systems) was used to record electrical activity from the spontaneously beating cardiac cells. The same electrodes were also used for stimulation utilizing a stimulus generator (STG 1002, Multichannel systems). The cells were stimulated utilizing 500 mV, 1 ms wide bipolar pulses at 2 Hz. The recording medium was the same as the plating medium with the pH adjusted to 7.3 using HEPES buffer. After a 30 minute incubation period, APs were detected and recorded using built in functions of the Multichannel System software. […] The data was further analyzed using software written using Matlab and Clampfit (Axon instruments). […] The cardiomyocytes used in these experiments were derived from differentiated adult induced pluripotent stem cells purchased from Cellular Dynamics. In FIG. 27 and FIG. 28, the electrical activity of the human cardiomyocytes plated on patterned MEAs was recorded following 12 days in vitro using a Multichannel Systems 60 channel amplifier (MEA 1040, Multichannel Systems). Prior to recording, the cells were allowed to equilibrate for 15 min in the lab atmosphere at 37° C. Temperature was maintained with a TC02 temperature controller (Multichannel Systems). The cells were stimulated using a STG 1002 stimulator (Multichannel Systems) by applying 1 ms wide bipolar square pulses of 500 mV every 500 ms. The recording medium was the same as the plating medium. […] Data are represented as percentage changes compared to the control and expressed as mean +/−SEM. In FIG. 29, electrical activity of the human cardiomyocytes plated on patterned MEAs was recorded following 12 days in vitro (DIV) using a Multichannel Systems 60 channel amplifier (MEA 1040, Multichannel Systems). Prior to recording, the cells were allowed to equilibrate for 15 min in the lab atmosphere at 37° C. Temperature was maintained with a TC02 temperature controller (Multichannel Systems). The cells were stimulated using a STG 1002 stimulator (Multichannel Systems) by applying 1 ms wide bipolar square pulses of 500 mV every 500 ms. The recording medium was the same as the plating medium. Sotalol (Sigma, cat#S0278) was added to the bathing medium in increasing concentrations of 0 μM, 10 μM, 30 μM, 100 μM, and 300 μM.
# human cardiomyocytes [2] = assay: Cantilever contractile force measurement of human cardiomyocytes (AFM-like laser deflection detection); assay type: cell-based
# Procedure: Spontaneous or electrical stimulation-evoked force generation of cardiac myocytes was measured based on optical detection or electrical detection of cantilever-bending. Optical detection of displacement of the end of the cantilever was based on the principle routinely used in atomic force microscopes (AFM) in which a laser beam was reflected from the cantilever to a sensor. The sensor detected the displacement of the laser beam caused by changes in the position of the cantilever. In this optical detection method, an automated electrical shutter was placed in the beam path. This placement minimized the exposure of the cells to the reflected laser light. Electrical detection of the displacement was based on piezoelectric principle that requires special design and materials for the fabrication of the cantilevers. Both detection methods enabled automation and high-throughput screening on myocyte contraction force. Peak contraction force and force-contraction velocity relationships were calculated based on the geometry of the cantilevers and the thickness of cultured cardiac myocytes (determined from immunostaining data). Compounds (such as norepinephrine, epinephrine, ouabain, verapamil, and sotalol) were applied using traditional methods to the medium and possible changes in force or force-velocity relationship were detected and analyzed using standard statistical methods.
# A detection system similar to those used in atomic force microscope (AFM) system was designed for measuring deflection of the cantilevers during contraction. The entire system was assembled around an upright Olympus BX51WI electrophysiology microscope (Olympus Inc., Center Valley, PA). The detection system consisted of a class 2 red photodiode laser (Newport, Irvine, CA), a stimulation chamber, a 4-quadrant photodetector (Noah Industries, Melbourne, FL), and a computer with pClamp 10.0 data acquisition software (Molecular Devices, Union City, CA). The laser and photodetector (PD) were mounted on x-y-z-h translators (Newport, Irvine, CA), which were mounted on the underside of the microscope stage. The stimulation chamber was fabricated from 5 mm thick polycarbonate sheet. An approximately 15 mm×15 mm square chamber was milled out of the sheet and fitted with silver wires (0.015 inch diameter) for field stimulation. The silver wires were mounted parallel to each other with a separation of 15 mm. The bottom of the chamber was sealed using a 22 mm×22 mm glass coverslip. This created a transparent base through which the laser beam could easily pass. The silver wires were connected to an external pulse generator (A-M systems, Sequim, WA) capable of producing field stimulation pulses of varying intensity, frequency, and waveform. Both the pulse generator and PD were connected to an Axon Instruments series 1440 digitizer (Molecular Devices, Union City, CA) which was interfaced with the computer.
# A detection system similar to that used in atomic force microscopy (AFM) was used in these experiments. Prior to recording, the cells were allowed to equilibrate for 15 min in the lab atmosphere at 37° C. Drugs were added cumulatively as follow: 0.1 μM, 0.3 μM, 1.0 μM, and 3.0 μM (norepinephrine); 0.1 μM, 1.0 μM, and 3.0 μM (epinephrine); 0.1 μM, 0.3 μM, 1.0 μM, and 3.0 μM (ouabain); and 0.3 μM, 1.0 μM, and 3.0 μM (verapamil). Washout was performed by rinsing the cells five (5) times with 1 mL of cell culture medium.
# [3] = norepinephrine concentration range 0.1-3 μM, human cardiac myocytes
# [4] = cardiomyocytes derived from human iPSCs cultured on cantilevers (FIG. 31D)
# [5] = sotalol 0-300 μM in bathing medium, human cardiomyocytes on patterned MEAs, 12 DIV, change vs control (FIG. 29)
smiles,measurement,setting,value
NC[C@H](O)c1ccc(O)c(O)c1 [norepinephrine],QT interval,human cardiomyocytes [1]; [3],decreased
same,minimal ISI (analogue of QT interval),human cardiomyocytes [1]; [3],decreased
same,spontaneous beating rate,human cardiomyocytes [1]; [3],significantly increased
same,contractile force,human cardiomyocytes [2]; [4],increasing
same,contractile frequency,human cardiomyocytes [2]; [4],increasing
same,peak contraction force,"human cardiomyocytes [2]; norepinephrine concentration range 0.1-3 μM, human cardiac myocytes on cantilevers, 14 days in vitro (FIG. 30A)",increased
CC(C)NCC(O)c1ccc(NS(C)(=O)=O)cc1 (centres unmarked) [sotalol],QT intervals,human cardiomyocytes [1]; [5],significantly increased
same,mISI (minimum interspike interval),human cardiomyocytes [1]; [5],significantly increased
same,conduction velocity,"human cardiomyocytes [1]; sotalol concentrations above 100 μM, human cardiomyocytes on patterned MEAs, 12 DIV",decreased
COc1ccc(CCN(C)CCC[C@@](C#N)(c2ccc(OC)c(OC)c2)C(C)C)cc1OC [verapamil],peak force versus concentration (μM),human cardiomyocytes [2]; human cardiomyocytes following administration of verapamil (FIG. 12C),decrease
same,contraction peak force,"human cardiomyocytes [2]; verapamil 0.3, 1.0, 3.0 μM cumulative, human cardiomyocytes on cantilevers, 14 days in vitro (FIG. 30D)",concentration dependently decreased

# From patent US12607620B2, “Devices and systems for mimicking heart function” (UNIVERSITY OF CENTRAL FLORIDA RESEARCH FOUNDATION, INC., priority 2013, dated 2026)
